Experimental data as given in patent US4593104A, “2-halo-N-(azole-1-yl-methyl)-substituted acetanilides” (BASF Aktiengesellschaft, priority 1976, dated 1986).
“And” between values parts separate entries of the source, which are not always exact repeats. Identical values can stand only once.

How the values were obtained:
Sorgh. bicol. = assay: preemergence treatment in the greenhouse, % damage; format: in vivo, Sorghum bicolor
Description: (§1) The vessels employed were plastic flowerpots having a volume of 300 cm^3; the substrate was a sandy loam containing about 1.5% humus. The seeds of the test plants (see Table 1) were sown shallow, and separated according to species. In the case of Cyperus esculentus, pregerminated tubers were planted. In the preemergence treatment, the active ingredients were then immediately applied to the surface of the soil. They were suspended or emulsified in water as the vehicle, and sprayed through atomizing nozzles. After the agents had been applied, the vessels were lightly sprinkler-irrigated to set germination and growth going, and to activate the chemical agents. The vessels were then covered with transparent plastic hoods until the plants had taken root. This cover ensured uniform germination of the test plants (to the extent that this was not impaired by the chemicals), and prevented readily volatile substances from evaporating.
(§2) For postemergence treatment, the plants were first grown to a height of from 3 to 10 cm, depending on their habit, before treated. Hoods were not placed on the pots. The experiments were set up in the greenhouse, hotter areas (25° to 40° C.) being preferred for heat-loving species, and 15° to 30° C. for plants from moderate climates. The experiments were carried out for from 4 to 6 weeks. During this period the plants were tended and their reaction to the various treatments was assessed. The following tables contain the substances investigated, the application rates in kg/ha of active ingredient, and the test plant species. Assessments were made on a 0 to 100 scale, 0 denoting no damage or normal emergence, and 100 denoting no emergence or complete destruction of at least the visible plant parts.

Gossyp. hirs. = assay: preemergence treatment in the greenhouse, % damage; format: in vivo, Gosspyium hirsutum
In short: (§3)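 Greenhouse herbicide test at rates in kg/ha a.i. Pre-em soil spray right after sowing, then irrigation and hooding; post-em on 3–10 cm plants. Rated 0–100 over 4–6 weeks.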

Glyc. max [1] = assay: preemergence treatment in the greenhouse, % damage; format: in vivo, Glycine max; settings: 0.25 kg/ha
In short: as §3

Stell. med. [2] = assay: postemergence application in the greenhouse, % damage; format: in vivo
Description: as §1, §2

Alopec. myosur. [3] = assay: as above; format: in vivo
Description: as §1, §2

Chrys. seget. [4] = assay: as above; format: in vivo
Description: as §1, §2

Setaria spp. [5] = assay: as above; format: in vivo
Description: as §1, §2

Matric. spp. [6] = assay: as above; format: in vivo
Description: as §1, §2

Avena fat. = assay: as above; format: in vivo
Description: as §1, §2

Cyper. escul. [7] = assay: preemergence treatment in the greenhouse, % damage; format: in vivo, Cyperus esculentus
Description: as §1, §2

Glyc. max [8] = assay: preemergence application in the open, % damage; format: in vivo, Glycine max
Method: (§4) The experiments were carried out on small plots. The soil was a sandy loam having a pH of from 5 to 6 and containing from 1 to 1.5% humus. The treatment was preemergence, the active ingredients being applied immediately or at the latest 3 days after sowing. The crop plants were sown in rows. The weed flora was made up of the most widely varying species and was natural; the weed flora depended on the time of the year and in part on the crop (e.g., spring-germinating, summer-germinating). The substances were emulsified or suspended in water as the vehicle, and applied by means of a motor-driven plot spray mounted on a hitch. When no rain fell, the plots were watered to ensure germination and growth of the crop plants and weeds. All the experiments were run for several weeks. Over this period, assessments were made at certain intervals on the 0 to 100 scale.

Solanum nigrum = assay: preemergence treatment in the greenhouse, % damage; format: in vivo
In short: as §3

Echin. c.g. [9] = assay: preemergence treatment in the greenhouse, % damage; format: in vivo
In short: as §3

Amar. retro. [10] = assay: preemergence treatment in the greenhouse, % damage; format: in vivo
In short: as §3

Poa annua = assay: preemergence treatment in the greenhouse, % damage; format: in vivo
In short: as §3

Cyp. diff. = assay: preemergence treatment in the greenhouse, % damage; format: in vivo
In short: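 Seeds sown in sandy loam (~1.5% humus); pre-emergence: agents sprayed in water onto soil surface immediately after sowing, then irrigated and hooded until rooting. Post-emergence: plants treated at 3–10 cm height, unhooded. Greenhouse at 25–40 °C or 15–30 °C by species; rates in kg/ha a.i.; damage scored 0–100 after 4–6 weeks.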

Stell. med. [11] = assay: preemergence treatment in the greenhouse, % damage; format: in vivo
In short: as §3

Alopec. myosur. [12] = assay: preemergence treatment in the greenhouse, % damage; format: in vivo
In short: as §3

Euph. gen. = assay: preemergence treatment in the greenhouse, % damage; format: in vivo
In short: as §3

Zea mays = assay: preemergence treatment in the greenhouse, % damage; format: in vivo
In short: as §3

Chrys. seget. [13] = assay: preemergence treatment in the greenhouse, % damage; format: in vivo
In short: as §3

Setaria spp. [14] = assay: preemergence treatment in the greenhouse, % damage; format: in vivo
In short: as §3

Bromus spp. = assay: preemergence treatment in the greenhouse, % damage; format: in vivo
In short: as §3

Matric. spp. [15] = assay: preemergence treatment in the greenhouse, % damage; format: in vivo
In short: as §3

Sorgh. halep. = assay: preemergence treatment in the greenhouse, % damage; format: in vivo
In short: as §3

Cyper. escul. [16] = assay: postemergence application in the greenhouse, % damage; format: in vivo, Cyperus esculentus
Description: as §1, §2

Echin. c.g. [17] = assay: preemergence application in the open, % damage; format: in vivo
Method: as §4

Amar. retro. [18] = assay: preemergence application in the open, % damage; format: in vivo; settings: 1,0 kg/ha
Method: as §4

Stellaria media = assay: preemergence application in the open, % damage; format: in vivo; settings: 2.0 kg/ha
Method: as §4

Alopec. myosur. [19] = assay: preemergence application in the open, % damage; format: in vivo; settings: 2.0 kg/ha
Method: as §4

Brassica napus = assay: preemergence application in the open, % damage; format: in vivo; settings: 2.0 kg/ha
Method: as §4

Chenop. spp. = assay: preemergence application in the open, % damage; format: in vivo
Method: as §4

Galins. spp. = assay: preemergence application in the open, % damage; format: in vivo
Method: as §4

Anth./Matric. = assay: preemergence application in the open, % damage; format: in vivo; settings: 2.0 kg/ha
Method: as §4

[20] = one value printed for two rates (0.25 0.5 kg/ha)

CCc1cccc(CC)c1N(COC)C(=O)CCl [prior art, 2-chloro-2',6'-diethyl-N-methoxymethyl-acetanilide, reference compound]
% damage (Sorgh. bicol.; 1.0 kg/ha): 0% | % damage (Sorgh. bicol.; 2.0 kg/ha): 0% | % damage (Gossyp. hirs.; 0.25 kg/ha): 0% | % damage (Gossyp. hirs.; 0.5 kg/ha): 0% | % damage (Gossyp. hirs.; 1.0 kg/ha): 20% and 10% | % damage (Gossyp. hirs.; 2.0 kg/ha): 40% | % damage (Glyc. max [1]): 10% | % damage (Stell. med. [2]; 1.0 kg/ha): 0% | % damage (Stell. med. [2]; 2.0 kg/ha): 30% | % damage (Alopec. myosur. [3]; 1.0 kg/ha): 60% | % damage (Alopec. myosur. [3]; 2.0 kg/ha): 60% | % damage (Chrys. seget. [4]; 1.0 kg/ha): 15% | % damage (Chrys. seget. [4]; 2.0 kg/ha): 15% | % damage (Setaria spp. [5]; 1.0 kg/ha): 68% | % damage (Setaria spp. [5]; 2.0 kg/ha): 68% | % damage (Matric. spp. [6]; 1.0 kg/ha): 50% | % damage (Matric. spp. [6]; 2.0 kg/ha): 50% | % damage (Avena fat.; 1.0 kg/ha): 50% | % damage (Avena fat.; 2.0 kg/ha): 70% | % damage (Cyper. escul. [7]; 0.5 kg/ha): 40% | % damage (Cyper. escul. [7]; 1.0 kg/ha): 50% | % damage (Cyper. escul. [7]; 2.0 kg/ha): 60% | % damage (Glyc. max [8]; 0,1 kg/ha): 0% | % damage (Glyc. max [8]; 1,0 kg/ha): 0% | % damage (Solanum nigrum; 0.25 kg/ha): 50% | % damage (Solanum nigrum; 0.5 kg/ha): 80% and 95% | % damage (Solanum nigrum; 1.0 kg/ha): 100% | % damage (Solanum nigrum; 2.0 kg/ha): 100% | % damage (Echin. c.g. [9]; 0.25 kg/ha): 95% | % damage (Echin. c.g. [9]; 0.5 kg/ha): 65% and 100% | % damage (Echin. c.g. [9]; 2.0 kg/ha): 95% and 90% | % damage (Amar. retro. [10]; 0.25 kg/ha): 72% and 80% | % damage (Amar. retro. [10]; 0.5 kg/ha): 100% and 80% | % damage (Amar. retro. [10]; 2.0 kg/ha): 100% and 50% | % damage (Amar. retro. [10]; [20]): 75% | % damage (Poa annua; 0.125 kg/ha): 80% | % damage (Poa annua; 0.5 kg/ha): 15% | % damage (Cyp. diff.; 0.125 kg/ha): 65% | % damage (Cyp. diff.; 0.25 kg/ha): 70% and 100% | % damage (Cyp. diff.; 0.5 kg/ha): 100% | % damage (Cyp. diff.; 1.0 kg/ha): 100% | % damage (Cyp. diff.; [20]): 65% | % damage (Stell. med. [11]; 0.25 kg/ha): 20% | % damage (Stell. med. [11]; 0.5 kg/ha): 70% | % damage (Stell. med. [11]; 1.0 kg/ha): 70% | % damage (Alopec. myosur. [12]; 0.25 kg/ha): 40% | % damage (Alopec. myosur. [12]; 0.5 kg/ha): 80% | % damage (Alopec. myosur. [12]; 1.0 kg/ha): 80% | % damage (Euph. gen.; 0.5 kg/ha): 25% and 20% and 30% | % damage (Euph. gen.; 1.0 kg/ha): 45% and 50% | % damage (Euph. gen.; 2.0 kg/ha): 100% | % damage (Zea mays; 1.0 kg/ha): 0% | % damage (Zea mays; 2.0 kg/ha): 0% | % damage (Chrys. seget. [13]; 0.25 kg/ha): 30% | % damage (Chrys. seget. [13]; 0.5 kg/ha): 0% | % damage (Setaria spp. [14]; 0.25 kg/ha): 70% | % damage (Setaria spp. [14]; 0.5 kg/ha): 60% and 90% | % damage (Setaria spp. [14]; 1.0 kg/ha): 90% and 95% and 100% | % damage (Setaria spp. [14]; 2.0 kg/ha): 100% | % damage (Bromus spp.; 0.125 kg/ha): 50% | % damage (Bromus spp.; 0.25 kg/ha): 80% and 88% | % damage (Bromus spp.; 0.5 kg/ha): 90% | % damage (Bromus spp.; 1.0 kg/ha): 50% | % damage (Bromus spp.; 2.0 kg/ha): 70% | % damage (Matric. spp. [15]; 0.25 kg/ha): 50% | % damage (Matric. spp. [15]; 0.5 kg/ha): 80% | % damage (Matric. spp. [15]; 1.0 kg/ha): 90% | % damage (Sorgh. halep.; 0.125 kg/ha): 40% | % damage (Sorgh. halep.; 0.25 kg/ha): 38% and 50% and 30% | % damage (Sorgh. halep.; 0.5 kg/ha): 50% and 40% | % damage (Sorgh. halep.; 1.0 kg/ha): 70% | % damage (Cyper. escul. [16]; 1.0 kg/ha): 42% | % damage (Cyper. escul. [16]; 2.0 kg/ha): 55% | % damage (Echin. c.g. [17]; 0,1 kg/ha): 65% | % damage (Echin. c.g. [17]; 1,0 kg/ha): 73% | % damage (Amar. retro. [18]): 80% | % damage (Stellaria media): 15% | % damage (Alopec. myosur. [19]): 65% | % damage (Brassica napus): 5% | % damage (Chenop. spp.; 0,1 kg/ha): 10% | % damage (Chenop. spp.; 1,0 kg/ha): 13% | % damage (Galins. spp.; 0,1 kg/ha): 30% | % damage (Galins. spp.; 1,0 kg/ha): 55% | % damage (Anth./Matric.): 53%
